Data as given in patent US11226337B2, “Chemoproteomic profiling of protein electrophilic and oxidative post-translational modifications” (Zenagem, LLC, priority 2017, dated 2022).

Legend:
Test in all cases: SILAC RP-ABPP
Assay type in all cases: cell-based
NEU1 Sialidase1 (Q99519) = target: T1, NEU1 Sialidase1 (Q99519) (Homo sapiens, UniProt Q99519); conditions: SILAC H/L, MDA-MB-231
T1 construct: endogenous in cells; host or cells: HEK293T or MDA-MB-231
Outline: (§1)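 Heavy SILAC HEK293T or MDA-MB-231 cells were treated with a clickable hydrazine probe; light cells received the non-clickable analogue (enrichment) or the probe plus 10-fold excess non-clickable competitor (competition). Mixed proteomes underwent CuAAC with 100 μM biotin-azide for 1 h. Heavy:light ratios were taken as median peptide ratios (≥3 peptides) averaged over ≥3 replicates.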

[1] = target: T2, SCD AcylCoA desaturase (O00767) (Homo sapiens, UniProt O00767); conditions: SILAC H/L, HEK293T
T2 construct: In Situ Labelling of Cells with Hydrazine Probes for MS Experiments; endogenous in cells
T2 sequence (O00767 whole entry): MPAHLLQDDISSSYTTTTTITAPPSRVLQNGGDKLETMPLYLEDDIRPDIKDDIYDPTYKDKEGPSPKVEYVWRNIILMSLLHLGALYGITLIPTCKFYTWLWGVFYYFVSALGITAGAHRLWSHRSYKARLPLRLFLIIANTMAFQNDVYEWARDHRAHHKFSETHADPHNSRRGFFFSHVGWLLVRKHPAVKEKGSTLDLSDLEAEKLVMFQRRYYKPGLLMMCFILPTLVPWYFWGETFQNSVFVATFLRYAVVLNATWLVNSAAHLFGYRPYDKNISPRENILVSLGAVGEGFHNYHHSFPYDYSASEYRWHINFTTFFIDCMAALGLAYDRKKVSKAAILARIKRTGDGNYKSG
Outline: as §1

[2] = target: T3, ACOX1 Peroxisomal acylcoenzyme A oxidase 1 (Q15067) (Homo sapiens, UniProt Q15067); conditions: SILAC H/L, HEK293T
T3 construct: In Situ Labelling of Cells with Hydrazine Probes for MS Experiments; endogenous in cells; host or cells: HEK293T and/or MDA-MB-231
T3 sequence (Q15067 whole entry): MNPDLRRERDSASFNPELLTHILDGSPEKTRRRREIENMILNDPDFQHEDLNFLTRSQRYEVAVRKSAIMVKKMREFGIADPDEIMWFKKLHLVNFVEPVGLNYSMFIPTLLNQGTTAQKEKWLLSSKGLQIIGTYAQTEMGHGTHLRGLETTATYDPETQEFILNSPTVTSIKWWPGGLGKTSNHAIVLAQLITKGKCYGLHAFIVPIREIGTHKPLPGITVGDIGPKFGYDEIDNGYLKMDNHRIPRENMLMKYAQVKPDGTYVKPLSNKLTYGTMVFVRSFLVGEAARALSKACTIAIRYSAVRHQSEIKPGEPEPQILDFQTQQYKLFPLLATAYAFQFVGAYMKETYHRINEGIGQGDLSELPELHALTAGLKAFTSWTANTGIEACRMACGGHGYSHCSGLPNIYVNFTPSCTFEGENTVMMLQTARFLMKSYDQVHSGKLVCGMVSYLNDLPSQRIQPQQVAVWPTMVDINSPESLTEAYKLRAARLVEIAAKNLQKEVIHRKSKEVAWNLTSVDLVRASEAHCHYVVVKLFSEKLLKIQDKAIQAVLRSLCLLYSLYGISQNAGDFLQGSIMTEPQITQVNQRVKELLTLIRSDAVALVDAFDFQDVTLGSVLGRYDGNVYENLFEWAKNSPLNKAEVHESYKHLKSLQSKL
Outline: as §1

[3] = target: T4, RAB14 Rasrelated protein Rab14 (P61106) (Homo sapiens, UniProt P61106); conditions: SILAC H/L, MDA-MB-231
T4 construct: endogenous in cells; host or cells: HEK293T or MDA-MB-231
T4 sequence (P61106 whole entry): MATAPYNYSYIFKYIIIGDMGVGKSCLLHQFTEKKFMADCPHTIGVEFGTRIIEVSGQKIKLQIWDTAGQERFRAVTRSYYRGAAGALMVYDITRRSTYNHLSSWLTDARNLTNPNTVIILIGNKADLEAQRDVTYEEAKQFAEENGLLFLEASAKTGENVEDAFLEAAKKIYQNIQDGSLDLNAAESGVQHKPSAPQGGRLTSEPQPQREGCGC
Outline: as §1

[4] = target: T5, RRM2B Ribonucleosidediphosphate reductase (Q7LG56) (Homo sapiens, UniProt Q7LG56); conditions: SILAC H/L, MDA-MB-231
T5 construct: endogenous in cells; host or cells: HEK293T or MDA-MB-231
T5 sequence (Q7LG56 whole entry): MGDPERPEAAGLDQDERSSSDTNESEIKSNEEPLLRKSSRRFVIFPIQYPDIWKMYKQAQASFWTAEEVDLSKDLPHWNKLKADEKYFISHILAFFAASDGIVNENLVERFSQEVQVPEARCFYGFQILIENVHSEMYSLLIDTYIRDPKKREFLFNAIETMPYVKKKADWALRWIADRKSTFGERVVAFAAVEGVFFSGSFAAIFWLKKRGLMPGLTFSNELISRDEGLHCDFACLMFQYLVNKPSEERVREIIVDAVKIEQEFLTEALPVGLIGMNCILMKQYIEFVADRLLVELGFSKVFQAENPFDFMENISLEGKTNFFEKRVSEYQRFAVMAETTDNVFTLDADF
Outline: as §1

[5] = target: T6, ALKBH1 Alkylated DNA repair protein alkB (Q13686) (Homo sapiens, UniProt Q13686); conditions: SILAC H/L, HEK293T
T6 construct: In Situ Labelling of Cells with Hydrazine Probes for MS Experiments; endogenous in cells
T6 sequence (Q13686 whole entry): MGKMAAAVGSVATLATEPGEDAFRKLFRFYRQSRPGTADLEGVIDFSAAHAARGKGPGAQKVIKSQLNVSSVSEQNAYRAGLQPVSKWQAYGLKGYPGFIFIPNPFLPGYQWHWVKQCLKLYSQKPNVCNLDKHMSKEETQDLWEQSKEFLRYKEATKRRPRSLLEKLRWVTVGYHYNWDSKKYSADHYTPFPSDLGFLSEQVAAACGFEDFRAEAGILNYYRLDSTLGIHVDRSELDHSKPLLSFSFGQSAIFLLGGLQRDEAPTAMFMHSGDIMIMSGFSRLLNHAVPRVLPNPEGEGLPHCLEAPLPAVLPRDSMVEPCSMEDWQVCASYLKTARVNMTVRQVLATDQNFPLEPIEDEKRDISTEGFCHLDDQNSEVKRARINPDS
Outline: as §1

[6] = target: T7, FADS1 Fatty acid desaturase 1 (O60427) (Homo sapiens, UniProt O60427); conditions: SILAC H/L, HEK293T
T7 construct: In Situ Labelling of Cells with Hydrazine Probes for MS Experiments; endogenous in cells; host or cells: HEK293T and/or MDA-MB-231
T7 sequence (O60427 whole entry): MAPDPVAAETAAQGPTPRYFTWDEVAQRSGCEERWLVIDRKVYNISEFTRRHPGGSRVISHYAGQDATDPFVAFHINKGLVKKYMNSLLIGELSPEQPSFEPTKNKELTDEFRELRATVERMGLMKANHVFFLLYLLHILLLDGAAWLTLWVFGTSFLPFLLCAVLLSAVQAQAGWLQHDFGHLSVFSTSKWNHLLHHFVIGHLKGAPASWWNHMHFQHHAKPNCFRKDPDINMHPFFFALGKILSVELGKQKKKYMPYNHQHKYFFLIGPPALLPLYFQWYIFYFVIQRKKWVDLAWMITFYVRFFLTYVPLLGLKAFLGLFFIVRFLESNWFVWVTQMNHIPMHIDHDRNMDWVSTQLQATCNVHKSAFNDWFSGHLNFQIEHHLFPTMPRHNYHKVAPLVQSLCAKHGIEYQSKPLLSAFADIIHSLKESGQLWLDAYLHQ
Outline: as §1

[7] = target: T8, PLOD2 Procollagenlysine, 2oxoglutarate (O00469) (Homo sapiens, UniProt O00469); conditions: SILAC H/L, MDA-MB-231
T8 construct: endogenous in cells; host or cells: HEK293T or MDA-MB-231
T8 sequence (O00469 26-737): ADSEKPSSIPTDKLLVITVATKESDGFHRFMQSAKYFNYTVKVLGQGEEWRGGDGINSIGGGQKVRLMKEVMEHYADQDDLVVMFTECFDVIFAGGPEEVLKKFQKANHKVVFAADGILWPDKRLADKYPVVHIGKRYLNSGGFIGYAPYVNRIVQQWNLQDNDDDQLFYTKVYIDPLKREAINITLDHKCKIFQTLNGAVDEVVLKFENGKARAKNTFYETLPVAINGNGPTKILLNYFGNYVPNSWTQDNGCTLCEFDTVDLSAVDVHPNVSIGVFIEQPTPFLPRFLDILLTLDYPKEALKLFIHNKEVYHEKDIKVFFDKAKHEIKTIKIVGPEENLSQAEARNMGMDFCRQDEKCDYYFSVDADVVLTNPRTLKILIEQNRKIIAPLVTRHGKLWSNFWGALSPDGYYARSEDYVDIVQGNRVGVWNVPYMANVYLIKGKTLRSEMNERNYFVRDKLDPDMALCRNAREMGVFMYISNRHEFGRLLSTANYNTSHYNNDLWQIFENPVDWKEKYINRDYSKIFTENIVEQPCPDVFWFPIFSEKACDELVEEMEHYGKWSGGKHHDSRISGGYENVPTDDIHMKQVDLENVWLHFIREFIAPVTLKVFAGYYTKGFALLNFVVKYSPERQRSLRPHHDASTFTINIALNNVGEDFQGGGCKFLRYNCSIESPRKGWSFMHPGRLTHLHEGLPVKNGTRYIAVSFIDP
Outline: as §1

[8] = target: T9, MINA MYCinduced nuclear antigen (Q8IUF8) (Homo sapiens, UniProt Q8IUF8); conditions: SILAC H/L, HEK293T
T9 construct: In Situ Labelling of Cells with Hydrazine Probes for MS Experiments; endogenous in cells; host or cells: HEK293T and/or MDA-MB-231
T9 sequence (Q8IUF8 whole entry): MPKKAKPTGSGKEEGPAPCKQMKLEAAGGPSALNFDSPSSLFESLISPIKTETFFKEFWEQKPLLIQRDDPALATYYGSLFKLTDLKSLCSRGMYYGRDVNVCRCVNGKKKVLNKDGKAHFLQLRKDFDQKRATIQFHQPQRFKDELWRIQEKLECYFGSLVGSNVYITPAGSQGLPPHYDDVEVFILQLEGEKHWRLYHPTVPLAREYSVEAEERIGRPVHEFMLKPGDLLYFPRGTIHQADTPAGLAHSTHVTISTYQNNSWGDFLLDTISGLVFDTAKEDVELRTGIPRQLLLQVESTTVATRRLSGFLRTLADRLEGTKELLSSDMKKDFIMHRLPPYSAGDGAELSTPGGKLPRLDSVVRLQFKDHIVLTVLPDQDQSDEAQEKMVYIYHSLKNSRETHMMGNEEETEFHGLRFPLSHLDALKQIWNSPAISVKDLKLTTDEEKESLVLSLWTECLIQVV
Outline: as §1

[9] = target: T10, PLBD2 Putative phospholipase Blike 2 (Q8NHP8) (Homo sapiens, UniProt Q8NHP8); conditions: SILAC H/L, MDA-MB-231
T10 construct: endogenous in cells; host or cells: HEK293T or MDA-MB-231
T10 sequence (Q8NHP8 42-589): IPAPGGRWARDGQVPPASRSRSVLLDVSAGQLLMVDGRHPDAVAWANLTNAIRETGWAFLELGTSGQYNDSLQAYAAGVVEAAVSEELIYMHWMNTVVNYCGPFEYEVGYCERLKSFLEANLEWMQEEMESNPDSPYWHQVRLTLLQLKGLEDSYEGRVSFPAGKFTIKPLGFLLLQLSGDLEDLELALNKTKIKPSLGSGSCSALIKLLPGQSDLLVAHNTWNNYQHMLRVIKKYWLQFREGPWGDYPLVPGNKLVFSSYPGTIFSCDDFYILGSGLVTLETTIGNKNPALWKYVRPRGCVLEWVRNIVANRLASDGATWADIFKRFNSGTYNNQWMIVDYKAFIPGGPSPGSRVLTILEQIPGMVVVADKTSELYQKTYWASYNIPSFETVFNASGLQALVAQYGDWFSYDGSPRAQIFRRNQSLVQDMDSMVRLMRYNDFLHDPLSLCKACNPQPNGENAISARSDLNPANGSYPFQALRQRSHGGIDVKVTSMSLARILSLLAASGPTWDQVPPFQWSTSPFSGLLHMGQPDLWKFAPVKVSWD
Outline: as §1

- enrichment ratioavg (NEU1 Sialidase1 (Q99519); probe 2 1 mM 0.5 h vs probe 4): 5
- competition ratioavg (NEU1 Sialidase1 (Q99519); probe 2 vs probe 2+10x probe 4): 3
- enrichment ratioavg ([1]; probe 2 1 mM 0.5 h vs probe 4): 20
- competition ratioavg ([1]; probe 2 vs probe 2+10x probe 4): 9
- enrichment ratioavg ([2]; probe 2 1 mM 0.5 h vs probe 4): 19
- competition ratioavg ([2]; probe 2 vs probe 2+10x probe 4): 2
- enrichment ratioavg ([3]; probe 2 1 mM 0.5 h vs probe 4): 5
- competition ratioavg ([3]; probe 2 vs probe 2+10x probe 4): 3
- enrichment ratioavg ([4]; probe 2 1 mM 0.5 h vs probe 4): 7
- competition ratioavg ([4]; probe 2 vs probe 2+10x probe 4): 2
- enrichment ratioavg ([5]; probe 2 1 mM 0.5 h vs probe 4): 20
- competition ratioavg ([5]; probe 2 vs probe 2+10x probe 4): 8
- enrichment ratioavg ([6]; probe 2 1 mM 0.5 h vs probe 4): 20
- competition ratioavg ([6]; probe 2 vs probe 2+10x probe 4): 4
- enrichment ratioavg ([7]; probe 2 1 mM 0.5 h vs probe 4): 6
- competition ratioavg ([7]; probe 2 vs probe 2+10x probe 4): 2
- enrichment ratioavg ([8]; probe 2 1 mM 0.5 h vs probe 4): 8
- competition ratioavg ([8]; probe 2 vs probe 2+10x probe 4): 2
- enrichment ratioavg ([9]; probe 2 1 mM 0.5 h vs probe 4): 9
- competition ratioavg ([9]; probe 2 vs probe 2+10x probe 4): 3
Structure (SMILES): C#CCCNC(=O)c1ccc(NN)cc1.Cl [probe 2, N-(but-3-yn-1-yl)-4-hydrazinylbenzamide hydrochloride]
